# Measured values as given in patent publication US20250188090A1, “A METHOD FOR EXTRACTION OF ALKALOID” (priority 2022, published 2025).
# Assay type: physicochemical
# Settings: pH 9
smiles,measurement,value
COC1=CC=C2[C@H]3Cc4ccc(O)c5c4[C@@]2(CCN3C)[C@H]1O5 [oripavine],% in the solvent after a 1-stage extraction (corresponding to D),93.3%
same,maximum D value,14.5
same,single stage extraction efficiency for oripavine,96%
